Assay results: patent US10807992B2, “Single enantiomer antiparasitic compounds” (priority 2017, dated 2020)
Like-named read-outs stand apart in the source and are kept apart here.

Tests used:
[1] = system: Ixodes scapularis; assay: In vitro contact activity against adult ticks (coated vial), I. scapularis; conditions: for mortality at 0.006 µM: Trial 1, dose 0.006 μM; for mortality at 0.024 µM: Trial 1, dose 0.024 μM; for mortality at 0.098 µM: Trial 1, dose 0.098 μM; for mortality at 0.39 µM: Trial 1, dose 0.39 μM; for mortality at 1.56 µM: Trial 1, dose 1.56 μM; for mortality at 6.25 µM: Trial 1, dose 6.25 μM; for mortality at 25 µM: Trial 1, dose 25 μM; for mortality at 100 µM: Trial 1, dose 100 μM
Method: Rhipicephalus sanguineus, Dermacentor variabilis, Amblyomma americanum, (Ecto Services, Inc., Henderson, N.C.) and Ixodes scapularis (Oklahoma State University, Stillwater, Okla.) aged between 2-4 weeks post molt were held in an environmental chamber at 24° C., 80% humidity with 12-hour light/dark cycles.
For tick assays, vial caps were pre-drilled with a single hole in the center of each cap to allow air exchange. A filter paper (Whatman Grade 540 2.1 cm) was placed in the lid of each vial. An aliquot from each compound stock was added to an acetone/triton solution to achieve the desired top doses for the study. Serial dilutions were conducted from the top dose (i.e. 100 ppm) to achieve the desired titration range for EC50 and EC90 determination. For R. sanguineus, D. variabilis, and A. americanum, the final DMSO concentration in each test vial was 0.5%. For I. scapularis, compounds were solubilized directly in an acetone/triton solution due to I. scapularis' sensitivity to DMSO. A 459 μL aliquot of each compound formulation was transferred to a vial containing a Whatman Grade 540 2.1 cm filter paper. Vials were immediately placed on an unheated roller unit to allow for an even coating of the vial walls. After vials were coated, 41 μL of each compound formulation was added to the filter paper embedded in each vial cap. Each cap was allowed to dry. The vials were loosely capped and allowed to dry for a minimum of four hours in a chemical fume hood.
(§1) Compounds tested were: the C1 racemate, C1 (R) enantiomer, and the C1 (S) enantiomer. For Trial 3, the C1 (R) enantiomer and the C1 (S) enantiomer were further chiral purified to achieve >99% purity.
Ten adult ticks were added to each vial and held at 24° C., 80% humidity with 12-hour light/dark cycles. Adult ticks were assessed for percent mortality at various time points between 2 hours and 48 hours post infestation. Ticks were stimulated on a heated roller unit and evaluated. Ticks showing no movement, or very slow and uncoordinated movement were noted as dead.

[2] = system: Aedes aegypti; assay: In vitro ingestion activity against adult mosquitoes (artificial feeding, bovine blood); conditions: read-out: Mortality % R1 + R2
Method: Aedes aegypti (Louisiana Biologicals Inc., New Orleans, La.) eggs were allowed to hatch, close, and age between 3-5 days in an environmental chamber at 26° C., 80% humidity with light/dark cycles.
For mosquito ingestion tests, serial dilutions of the compound stock were performed using DMSO to achieve the desired range for EC50 and EC90 determination. An aliquot of each compound dilution was added to organic bovine blood with a final DMSO concentration of 0.5% and placed in a temperature-controlled artificial feeding container.
as §1
For both contact and ingestion assays, five female Aedes aegypti adults were added to each vial or cage. The test vials for contact assays were held in an environmental chamber at 24° C., 80% humidity with light/dark cycles (12 hours each). The cages for mosquito ingestion assays were held in a temperature-controlled artificial feeding apparatus to allow continual access to organic bovine blood containing the desired concentration of compound. Fresh aliquots of compound-spiked bovine blood were provided daily for the duration of the study.
Assessment of mortality/knockdown was performed at various time points between 30 minutes and 24 hours post infestation. Mosquitoes showing no movement or mosquitoes that were knocked down were noted as dead. Results from trial 1 and trial 2 contact assays are shown in Tables 12 and 13, respectively and the results from trial 3 mosquito ingestion assay is shown in table 14.
For the mosquito contact and ingestion assays, each replicate contained 5 mosquitoes. For ease of calculation, the two replicates were added to equal a total of 10 mosquitoes.

O=C(CC(F)(F)F)N1CC2(C1)OCc1cc(C3=NS[C@@](c4cc(Cl)c(F)c(Cl)c4)(C(F)(F)F)C3)ccc12 [C1 (S) enantiomer, (S)-1-[6-[5-(3,5-dichloro-4-fluoro-phenyl)-5-(trifluoromethyl)-4H-isothiazol-3-yl]spiro[1H-isobenzofuran-3,3′-azetidine]-1′-yl]-3,3,3-trifluoro-propan-1-one]
mortality at 0.006 µM ([1]; 2 h, Rep1): 0% | mortality at 0.006 µM ([1]; 2 h, Rep2): 0% | mortality at 0.024 µM ([1]; 2 h, Rep1): 0% | mortality at 0.024 µM ([1]; 2 h, Rep2): 0% | mortality at 0.098 µM ([1]; 2 h, Rep1): 0% | mortality at 0.098 µM ([1]; 2 h, Rep2): 0% | mortality at 0.39 µM ([1]; 2 h, Rep1): 0% | mortality at 0.39 µM ([1]; 2 h, Rep2): 0% | mortality at 1.56 µM ([1]; 2 h, Rep1): 0% | mortality at 1.56 µM ([1]; 2 h, Rep2): 0% | mortality at 6.25 µM ([1]; 2 h, Rep1): 0% | mortality at 6.25 µM ([1]; 2 h, Rep2): 0% | mortality at 25 µM ([1]; 2 h, Rep1): 0% | mortality at 25 µM ([1]; 2 h, Rep2): 0% | mortality at 100 µM ([1]; 2 h, Rep1): 0% | mortality at 100 µM ([1]; 2 h, Rep2): 0% | mortality at 0.006 µM ([1]; 6 h, Rep1): 0% | mortality at 0.006 µM ([1]; 6 h, Rep2): 0% | mortality at 0.024 µM ([1]; 6 h, Rep1): 0% | mortality at 0.024 µM ([1]; 6 h, Rep2): 0% | mortality at 0.098 µM ([1]; 6 h, Rep1): 0% | mortality at 0.098 µM ([1]; 6 h, Rep2): 0% | mortality at 0.39 µM ([1]; 6 h, Rep1): 0% | mortality at 0.39 µM ([1]; 6 h, Rep2): 0% | mortality at 1.56 µM ([1]; 6 h, Rep1): 0% | mortality at 1.56 µM ([1]; 6 h, Rep2): 0% | mortality at 6.25 µM ([1]; 6 h, Rep1): 0% | mortality at 6.25 µM ([1]; 6 h, Rep2): 0% | mortality at 25 µM ([1]; 6 h, Rep1): 40% | mortality at 25 µM ([1]; 6 h, Rep2): 40% | mortality at 100 µM ([1]; 6 h, Rep1): 100% | mortality at 100 µM ([1]; 6 h, Rep2): 100% | mortality at 0.006 µM ([1]; 12 h, Rep1): 0% | mortality at 0.006 µM ([1]; 12 h, Rep2): 0% | mortality at 0.024 µM ([1]; 12 h, Rep1): 0% | mortality at 0.024 µM ([1]; 12 h, Rep2): 0% | mortality at 0.098 µM ([1]; 12 h, Rep1): 0% | mortality at 0.098 µM ([1]; 12 h, Rep2): 0% | mortality at 0.39 µM ([1]; 12 h, Rep1): 0% | mortality at 0.39 µM ([1]; 12 h, Rep2): 0% | mortality at 1.56 µM ([1]; 12 h, Rep1): 0% | mortality at 1.56 µM ([1]; 12 h, Rep2): 0% | mortality at 6.25 µM ([1]; 12 h, Rep1): 40% | mortality at 6.25 µM ([1]; 12 h, Rep2): 50% | mortality at 25 µM ([1]; 12 h, Rep1): 100% | mortality at 25 µM ([1]; 12 h, Rep2): 90% | mortality at 100 µM ([1]; 12 h, Rep1): 100% | mortality at 100 µM ([1]; 12 h, Rep2): 100% | mortality at 0.006 µM ([1]; 24 h, Rep1): 0% | mortality at 0.006 µM ([1]; 24 h, Rep2): 0% | mortality at 0.024 µM ([1]; 24 h, Rep1): 0% | mortality at 0.024 µM ([1]; 24 h, Rep2): 0% | mortality at 0.098 µM ([1]; 24 h, Rep1): 0% | mortality at 0.098 µM ([1]; 24 h, Rep2): 0% | mortality at 0.39 µM ([1]; 24 h, Rep1): 0% | mortality at 0.39 µM ([1]; 24 h, Rep2): 0% | mortality at 1.56 µM ([1]; 24 h, Rep1): 50% | mortality at 1.56 µM ([1]; 24 h, Rep2): 60% | mortality at 6.25 µM ([1]; 24 h, Rep1): 100% | mortality at 6.25 µM ([1]; 24 h, Rep2): 90% | mortality at 25 µM ([1]; 24 h, Rep1): 100% | mortality at 25 µM ([1]; 24 h, Rep2): 100% | mortality at 100 µM ([1]; 24 h, Rep1): 100% | mortality at 100 µM ([1]; 24 h, Rep2): 100% | mortality at 0.006 µM ([1]; 48 h, Rep1): 0% | mortality at 0.006 µM ([1]; 48 h, Rep2): 10% | mortality at 0.024 µM ([1]; 48 h, Rep1): 0% | mortality at 0.024 µM ([1]; 48 h, Rep2): 0% | mortality at 0.098 µM ([1]; 48 h, Rep1): 10% | mortality at 0.098 µM ([1]; 48 h, Rep2): 10% | mortality at 0.39 µM ([1]; 48 h, Rep1): 40% | mortality at 0.39 µM ([1]; 48 h, Rep2): 40% | mortality at 1.56 µM ([1]; 48 h, Rep1): 90% | mortality at 1.56 µM ([1]; 48 h, Rep2): 100% | mortality at 6.25 µM ([1]; 48 h, Rep1): 100% | mortality at 6.25 µM ([1]; 48 h, Rep2): 100% | mortality at 25 µM ([1]; 48 h, Rep1): 100% | mortality at 25 µM ([1]; 48 h, Rep2): 100% | mortality at 100 µM ([1]; 48 h, Rep1): 100% | mortality at 100 µM ([1]; 48 h, Rep2): 100% | mortality at 0.049 ppm ([2]; 24 h): 70% | mortality at 0.2 ppm ([2]; 24 h): 100% | mortality at 0.78 ppm ([2]; 24 h): 100% | mortality at 3.125 ppm ([2]; 24 h): 100% | mortality at 12.5 ppm ([2]; 24 h): 100% | mortality at 50 ppm ([2]; 24 h): 100% | mortality at 0.049 ppm [2]: 0% | mortality at 0.2 ppm [2]: 44.4% | mortality at 0.78 ppm [2]: 100% | mortality at 3.125 ppm [2]: 100% | mortality at 12.5 ppm [2]: 100% | mortality at 50 ppm [2]: 100%
